Assay results published in paper PMC9100673, “Acridine Based N-Acylhydrazone Derivatives as Potential Anticancer Agents: Synthesis, Characterization and ctDNA/HSA Spectroscopic Binding Properties” (Molecules, 2022).

Tests used:
Assay type in all cases: cell-based, human
CCD-18Co cells = experiment: MTT assay, metabolic activity of CCD-18Co fibroblasts; settings: 48 h; for IC50: Homo sapiens, CCD-18Co
Protocol: The effect of acridine-benzohydrazides (3a–3d) on the metabolic activity of the lung adenocarcinoma cell line (A549) and the normal colon fibroblast cell line (CCD-18Co) was evaluated using a 3-(4,5-dimethylthiazol-2-yl)-2,5-diphenyltertrazolium bromide (MTT) cell assay. This assay is based on the metabolization of yellow MTT to purple formazan crystal by mitochondrial dehydrogenases, and therefore only metabolic active cells are capable of that reaction. The CCD-18Co cell line was used as a control to check for derivatives selectivity. The doxorubicin belongs to a group of anthracyclines, which represent the chemotherapeutic regiments for the treatment of NSCLC (non-small cell lung carcinoma) even today, and acts as antineoplastic mainly by interaction with the DNA topoisomerase II and by creating DNA single- and double-strand breaks. Previous studies described detailed cytotoxic effects of doxorubicin in the human lung adenocarcinoma A549 cell line. Doxorubicin resembles our compounds in its biological action; therefore, it was employed as a positive control.
Human lung carcinoma cell line A549 and CCD-18Co colon fibroblasts were purchased from the American Type Culture Collection (ATCC, Rockville, MD, USA). The A549 cells were cultured in a complete RPMI-1640 medium (Sigma-Aldrich, St. Louis, MO, USA) and CCD-18Co cells were cultured in a minimum essential medium (MEM) (PAN-Biotech GmbH, Aidenbach, Germany) at 37 °C, 95% humidity and 5% CO2. The media were supplemented with 10% fetal bovine serum (FBS, Biosera, Nuaille, France) and antibiotics (1% Antibiotic-Antimycotic 100 × and 50 × 10^−3 g L^−1 gentamicin, Biosera). Prior to the selected treatments, cells were seeded on 6- and/or 96-well plates (TPP, Trasadingen, Switzerland) and left to settle for 24 h. The acridine compounds solutions (at concentrations ranging from 5–75 µM) were then added to cells for 24 or 48 h, and analysis was subsequently performed.
MTT assays were performed in order to evaluate changes in the metabolic activity of cells that had occurred as a consequence of treatment with the acridine compounds. A549 cells (15 × 10^3 cells/cm^2) and CCD-18Co (15.625 × 10^3 cells/cm^2) were seeded in 96-well microplates. The A549 cells were treated for 24 and 48 h, and the CCD-18Co cells were treated for 48 h with different concentrations (5, 25, 50 and 75 µM) of the derivatives. After the treatment, the MTT (3-(4,5-dimethylthiazol-2-yl)-2,5-diphenyltertrazolium bromide) solution in PBS (5 mg mL^−1) was added to each well. The reaction was stopped after 4 h incubation, and the formazan was dissolved by the addition of SDS at a final concentration of 3.3%. The absorbance of formazan (λ = 584 nm) was measured using a BMG FLUOstar Optima spectrometer (BMG Labtech GmbH, Offenburg, Germany). The results were evaluated as percentages of the absorbance of the untreated control. Results are presented as the average percentage of cells from three independent experiments. IC50 values for the derivatives were extrapolated from a sigmoidal fit (dose-response curve) to the metabolic activity data using OriginPro 8.5.0 SR1 (OriginLab Corp., Northampton, MA, USA).

A549 cells [1] = experiment: Cell cycle analysis by flow cytometry; settings: 25 and 50 μM, 48 h
Protocol: For flow cytometric analysis of the cell cycle distribution, floating and adherent cells were harvested together 48 h after treatment with the compounds (25 and 50 µM), washed in cold PBS, fixed in cold 70% ethanol, and stored overnight at −20 °C. Prior to analysis, the cells were washed twice in PBS, resuspended in a staining solution (0.1% Triton X-100, 0.137 g L^−1 ribonuclease A and 0.02 g L^−1 propidium iodide (PI) and incubated in dark conditions at RT for 30 min. The DNA content was analysed using a BD FACSCalibur flow cytometer (Becton Dickinson, San Jose, CA, USA) with a 488 nm argon-ion excitation laser, and fluorescence was detected using a 585/42 nm band-pass filter (FL-2). ModFit 3.0 software (Verity Software House, Topsham, ME, USA) was used to generate DNA content frequency histograms and to quantify the percentage of cells in the individual cell cycle phases. The results are presented as the average ratio of cells in the individual phase to all cells from three independent experiments.

A549 cells [2] = experiment: Colony forming (clonogenic) assay; settings: 48 h treatment, 7 days cultivation; for effect on ability of A549 cells to form new colonies: 25 μM; for reduction of clonogenic ability of A549 cells vs control: 50 μM
Protocol: To assess drug efficacy and prevent treatment failure, it is important to observe whether cancer cells may proliferate during the interval between treatments. The clonogenic assay evaluates the efficacy of new drugs by observation of reduced repopulation of cancer cells and cell survival after treatment. This assay is important to select eligible anticancer drug candidates. The clonogenic survival was analysed after treatment of A549 cells with the compounds 3a and 3c. DMSO (0.5%) was used as solvent control. A549 cells were treated with 3a and 3c in concentrations of 25 and 50 μM for 48 h. The cells were then counted, and 500 viable cells per well were seeded and cultivated for another seven days under standard conditions.
For the colony forming assay, floating and adherent cells were harvested together 48 h after treatment with the studied compounds (25 and 50 µM). The cells were then counted using a Bürker chamber with eosin staining and 500 viable cells per well were seeded in 6-well plates. After seven days of cultivation under standard conditions, the cells in the plates were fixed and stained with 1% methylene blue dye in methanol. Visualized colonies were scanned and counted by Image software, and the results were evaluated as percentages of the untreated control. The results are presented as the average percentage of colonies from three independent experiments.

A549 cells [3] = experiment: Quantification of cell number and viability (eosin staining, Bürker chamber); settings: 50 μM, 48 h
Protocol: For the assessment of total cell numbers and viability within individual experimental groups, floating and adherent cells were harvested after treatment with the studied compounds and evaluated using a Bürker chamber with eosin staining. A549 cells were plated at a density of 135 × 10^3 cell/well into a 6-well plate and treated with different concentration of derivatives (25 and 50 µM) for 48 h. The total cell number was expressed as a percentage of the untreated control of the total cell number. Viability was expressed as a percentage of viable, eosin negative cells. The results are presented as the average percentage of cells from three independent experiments.

| SMILES | IC50 (CCD-18Co cells) | effect on cell cycle distribution (A549 cells [1]) | effect on ability of A549 cells to form new colonies (A549 cells [2]) | reduction of clonogenic ability of A549 cells vs control (A549 cells [2]) | decrease of viability of A549 cells vs control (A549 cells [3]) | reduction of total cell number vs control (A549 cells [3]) | times less activity than doxorubicin in CCD18-Co (CCD-18Co cells; from IC50) |
| --- | --- | --- | --- | --- | --- | --- | --- |
| O=C(N/N=C/c1cccc2cc3ccccc3nc12)c1ccc(Br)cc1 [3d, N′-[(E)-Acridin-4-ylmethylidene]-4-bromobenzohydrazide] | 17 µM | – | – | – | – | – | – |
| O=C(N/N=C/c1cccc2cc3ccccc3nc12)c1ccc(Cl)cc1 [3c, N′-[(E)-Acridin-4-ylmethylidene]-4-chlorobenzohydrazide] | 16 µM | accumulation of cells in the G2/M phase | did not significantly reduce | 74% | 14% | ~91% | – |
| O=C(N/N=C/c1cccc2cc3ccccc3nc12)c1ccccc1 [3a, N′-[(E)-(Acridin-4-yl)methylidene]benzohydrazide] | > 75 µM | accumulation of cells in the G2/M phase | did not significantly reduce | 72% | 34% | approximately 94% | > 15 |
| O=C(N/N=C/c1cccc2cc3ccccc3nc12)c1ccc(F)cc1 [3b, N′-[(E)-Acridin-4-ylmethylidene]-4-fluorobenzohydrazide] | 8 µM | – | – | – | – | – | – |
